Each structure is given as a SMILES string.

The values below come from ChEMBL document CHEMBL1157512, “Anti-HIV-1 protease activity of lanostane triterpenes from the vietnamese mushroom Ganoderma colossum” (J Nat Prod, 2008).

In this assay the target is Protease (Human immunodeficiency virus 1, UniProt Q9YQ12). Nature of the assay: Inhibition of recombinant HIV1 protease.
Protease, sequence (Q9YQ12 whole entry): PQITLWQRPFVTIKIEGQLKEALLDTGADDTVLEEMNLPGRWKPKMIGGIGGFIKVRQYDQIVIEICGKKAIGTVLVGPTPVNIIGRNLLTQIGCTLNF
In general, IC50 refers to the concentration that gives 50% inhibition. On to `CC(=O)OC[C@]12CC[C@H](O)C(C)(C)[C@@H]1CCC1=C2CC[C@]2(C)[C@@H]([C@H](C)C(O)C/C=C(/C)CO)CC[C@@]12C` (stereo partly drawn) [COLOSSOLACTONE A], for which the IC50 was 75.5 µM.
Consider `CC(=O)O[C@@H]1C[C@H]([C@H](C)[C@H]2CC=C(C)C(=O)O2)[C@@]2(C)CCC3=C(CC[C@@H]4C(=C3)C=CC(=O)OC4(C)C)[C@]12C` [COLOSSOLACTONE E], for which the 50% inhibitory concentration (IC50) is 15.3 µM.
The same measure for `CC(=O)O[C@@H]1C[C@H]([C@H](C)[C@H]2CC=C(C)C(=O)O2)[C@@]2(C)CCC3=C(CC[C@]4(O)C(=C3)C=CC(=O)OC4(C)C)[C@]12C` [COLOSSOLACTONE G]: 9.28 µM; for `CC(=O)O[C@@H]1C[C@H]([C@H](C)[C@@H]2OC(=O)C(C)=C[C@H]2O)[C@@]2(C)CCC3=C(CC[C@@H]4C(=C3)C=CC(=O)OC4(C)C)[C@]12C` [COLOSSOLACTONE VIII]: 58.3 µM; for `COC(=O)CC[C@]1(COC(C)=O)C2=C(CC[C@H]1C(C)(C)O)[C@]1(C)CC[C@H]([C@H](C)[C@H]3CC=C(C)C(=O)O3)[C@@]1(C)CC2` [COLOSSOLACTONE VII]: 24.7 µM.
The value for `COC(=O)CC[C@]1(COC(C)=O)C2=CC[C@]3(C)[C@@H]([C@H](C)[C@@H](C/C=C(/C)C(=O)O)OC(C)=O)CC[C@@]3(C)C2=CC[C@H]1C(C)(C)O` [COLOSSOLACTONE VI] was above 162 µM; that for `COC(=O)CC[C@]1(COC(C)=O)C2=C(CC[C@H]1C(C)(C)O)[C@]1(C)CC[C@H]([C@H](C)[C@@H](C/C=C(/C)C(=O)O)OC(C)=O)[C@@]1(C)CC2` [COLOSSOLACTONE V] was 14.5 µM; that for `CC1=CC[C@H]([C@@H](C)[C@H]2CC[C@@]3(C)C4=C(C=C5C=CC(=O)OC(C)(C)[C@@H]5CC4)CC[C@]23C)OC1=O` [SCHISANLACTONE A] was 10.8 µM.
